Experimental findings from paper PMC11995724, “Antibiotic target discovery by integrated phenotypic and activity-based profiling of electrophilic fragments” (Cell chemical biology, 2025) are described below.

Where a name gives a salt, the structure may show the parent alone.

The series can be described thus: in vitro. Conditions: human, hek293t cells.
The term viability denotes a read-out of living cells in per cent, often relative to untreated cells. Regarding `CC(Cl)C(=O)N1CCOCC(n2cccn2)C1` (stereo not shown) [6-H22, 2-chloro-1-[6-(1H-pyrazol-1-yl)-1,4-oxazepan-4-yl]propan-1-one], the viability at 48 h, 25 µM came to 105%.

`CC(C)Cn1c(N)c(C(=O)CCl)c(=O)n(C)c1=O` [10-M12, 6-amino-5-(2-chloroacetyl)-3-methyl-1-(2-methylpropyl)-1,2,3,4-tetrahydropyrimidine-2,4-dione]: the viability at 48 h, 25 µM turned out to be 97.1%.

`CC(Cl)C(=O)NCC1CCCN(c2nccn3cnnc23)C1` (stereo not shown) [7-M05, 2-chloro-N-[(1-{[1,2,4]triazolo[4,3-a]pyrazin-8-yl}piperidin-3-yl)methyl]propanamide]: the viability at 48 h, 25 µM is 102%.

Turning to `O=C(CCl)NCC(=O)N1CCC(Cc2ccccc2)CC1` [6-F04, N-[2-(4-benzylpiperidin-1-yl)-2-oxoethyl]-2-chloroacetamide], the viability at 48 h, 25 µM was determined as 21.7%.

As to `C=CC(=O)Nc1cnn(-c2ccncc2)c1C(F)F` [1-O09, N-[5-(difluoromethyl)-1-(pyridin-4-yl)-1H-pyrazol-4-yl]prop-2-enamide], the viability at 48 h, 25 µM was 67.8%.

As to `COc1ccc(S(=O)(=O)N2CCSSCC2)cc1C` [10-D11, 5-(4-methoxy-3-methylbenzenesulfonyl)-1,2,5-dithiazepane], the viability at 48 h, 25 µM amounted to 105%.

As for `C=CC(=O)N1CCC(c2noc3cc(F)ccc23)CC1` [3-I07, 1-[4-(6-fluoro-1,2-benzoxazol-3-yl)piperidin-1-yl]prop-2-en-1-one], the viability at 48 h, 25 µM came out at 48.2%.

For the compound `C=CC(=O)NC1(c2nc(C3CC3)cc(=O)[nH]2)CCCCC1` [3-H13, N-[1-(4-cyclopropyl-6-oxo-1,6-dihydropyrimidin-2-yl)cyclohexyl]prop-2-enamide], the viability at 48 h, 25 µM turned out to be 68.3%.

For `CC(=O)N(c1ccc(C)c(C)c1)c1nc(C=C(C#N)C(N)=O)cs1` [8-M16, 2-cyano-3-{2-[N-(3,4-dimethylphenyl)acetamido]-1,3-thiazol-4-yl}prop-2-enamide], the viability at 48 h, 25 µM was determined as 85.9%.

With `CC(Cl)C(=O)N1CCOCC1c1ncnn1Cc1ccccc1` (stereo not shown) [7-C08, 1-[3-(1-benzyl-1H-1,2,4-triazol-5-yl)morpholin-4-yl]-2-chloropropan-1-one], the viability at 48 h, 25 µM came out at 95.7%.

Take `CC(Cl)C(=O)Nc1ccc(C(=O)N(C)C2CCCN(C)C2)cc1` (stereo not shown) [7-I20, 4-(2-chloropropanamido)-N-methyl-N-(1-methylpiperidin-3-yl)benzamide]: the viability at 48 h, 25 µM is 76.4%.

For the compound `CC1CCN(C(=O)CCl)c2cc(Cl)ccc2S1` (stereo not shown) [4-G16, 2-chloro-1-(7-chloro-2-methyl-2,3,4,5-tetrahydro-1,5-benzothiazepin-5-yl)ethan-1-one], the viability at 48 h, 25 µM stood at 0.484%.

For `COC(=O)c1c(NC(=O)CCl)sc(Cl)c1-c1ccccc1` [4-E20, methyl 5-chloro-2-(2-chloroacetamido)-4-phenylthiophene-3-carboxylate], the viability at 48 h, 25 µM is 0.576%.

For `CC(Cl)C(=O)N1CCc2ncsc2C1` (stereo not shown) [7-C06, 2-chloro-1-{4H,5H,6H,7H-[1,3]thiazolo[5,4-c]pyridin-5-yl}propan-1-one], the viability at 48 h, 25 µM was 92.6%.

As for `C=CC(=O)N(Cc1cc(C)c2ncccc2c1)C(C)C1CCCO1` (stereo not shown) [1-P15, N-[(8-methylquinolin-6-yl)methyl]-N-[1-(oxolan-2-yl)ethyl]prop-2-enamide], the viability at 48 h, 25 µM worked out at 93.5%.

Turning to `CC1CCCN(C(=O)C(NC(=O)CCl)c2cnn(C)c2)C1` (stereo not shown) [6-H05, 2-chloro-N-[1-(1-methyl-1H-pyrazol-4-yl)-2-(3-methylpiperidin-1-yl)-2-oxoethyl]acetamide], the viability at 48 h, 25 µM was found to be 104%.

As to `COc1cc(Cl)c(C)cc1NC(=O)C(C#N)=Cc1c(C)n[nH]c1C` [8-K10, N-(4-chloro-2-methoxy-5-methylphenyl)-2-cyano-3-(3,5-dimethyl-1H-pyrazol-4-yl)prop-2-enamide], the viability at 48 h, 25 µM worked out at 83.6%.

With `C=CC(=O)Nc1ccc2c(c1)CCO2` [1-O11, N-(2,3-dihydro-1-benzofuran-5-yl)prop-2-enamide], the viability at 48 h, 25 µM worked out at 87.8%.

As for `CCc1ccc(C(NC(=O)CCl)c2cccc(F)c2)cc1` (stereo not shown) [4-C20, 2-chloro-N-[(4-ethylphenyl)(3-fluorophenyl)methyl]acetamide], the viability at 48 h, 25 µM was found to be 0.508%.

Turning to `C=CC(=O)N1CC(n2nc(C)cc2C)C1` [3-B04, 1-[3-(3,5-dimethyl-1H-pyrazol-1-yl)azetidin-1-yl]prop-2-en-1-one], the viability at 48 h, 25 µM worked out at 77.4%.

For `O=S(=O)(c1cc(Cl)cc(Cl)c1)N1CCSSCC1` [10-J09, 5-(3,5-dichlorobenzenesulfonyl)-1,2,5-dithiazepane], the viability at 48 h, 25 µM was 102%.

Take `C=CC(=O)N1CCC(n2ccnn2)CC1` [3-K09, 1-[4-(1H-1,2,3-triazol-1-yl)piperidin-1-yl]prop-2-en-1-one]: the viability at 48 h, 25 µM was determined as 65.2%.

As to `CN(C)C(=O)C(CNC(=O)CCl)c1ccccc1` (stereo not shown) [7-J12, 3-(2-chloroacetamido)-N,N-dimethyl-2-phenylpropanamide], the viability at 48 h, 25 µM amounted to 1.26%.

As for `O=C(CCl)N1CCC1c1cccc(F)c1` (stereo not shown) [5-K10, 2-chloro-1-[2-(3-fluorophenyl)azetidin-1-yl]ethan-1-one], the viability at 48 h, 25 µM was determined as 28.5%.

Turning to `Cn1ccnc1C(=O)CCl` [10-C15, 2-chloro-1-(1-methyl-1H-imidazol-2-yl)ethan-1-one], the viability at 48 h, 25 µM amounted to 67.6%.

`CC(C)Cn1c(N)c(C(=O)CCl)c(=O)[nH]c1=O` [10-F08, 6-amino-5-(2-chloroacetyl)-1-(2-methylpropyl)-1,2,3,4-tetrahydropyrimidine-2,4-dione]: the viability at 48 h, 25 µM is 91.2%.

Take `CC(Cl)C(=O)N1CCCCC1c1cnn(C)c1` (stereo not shown) [7-A03, 2-chloro-1-[2-(1-methyl-1H-pyrazol-4-yl)piperidin-1-yl]propan-1-one]: the viability at 48 h, 25 µM turned out to be 98.8%.

On to `Cc1ccccc1NC(=O)C(C#N)=Cc1ccsc1` [8-K15, 2-cyano-N-(2-methylphenyl)-3-(thiophen-3-yl)prop-2-enamide], for which the viability at 48 h, 25 µM turned out to be 77.5%.

Consider `CN(CC(=O)Nc1ccc(F)cc1)C(=O)CCl` [4-B05, 2-chloro-N-{[(4-fluorophenyl)carbamoyl]methyl}-N-methylacetamide], for which the viability at 48 h, 25 µM was found to be 0.41%.

Regarding `CC(C)Oc1ccccc1C=C(C#N)C(=O)Nc1ccccc1` [8-M17, 2-cyano-N-phenyl-3-[2-(propan-2-yloxy)phenyl]prop-2-enamide], the viability at 48 h, 25 µM was found to be 78.4%.

`O=C(CN1CCN(C(=O)CCl)CC1)Nc1cccc(F)c1` [5-P19, 2-[4-(2-chloroacetyl)piperazin-1-yl]-N-(3-fluorophenyl)acetamide hydrochloride]: the viability at 48 h, 25 µM was 1.84%.

For `CC(Cl)C(=O)N1CCNC(=O)C1c1cccs1` (stereo not shown) [6-J17, 4-(2-chloropropanoyl)-3-(thiophen-2-yl)piperazin-2-one], the viability at 48 h, 25 µM amounted to 106%.

On to `C=CC(=O)N(Cc1noc2c1CCCC2)CC1CCCC1` [1-H13, N-(cyclopentylmethyl)-N-[(4,5,6,7-tetrahydro-1,2-benzoxazol-3-yl)methyl]prop-2-enamide], for which the viability at 48 h, 25 µM was 113%.

As for `C=CC(=O)N1CC(S(=O)(=O)N2CCOCC2)C1` [2-A16, 1-[3-(morpholine-4-sulfonyl)azetidin-1-yl]prop-2-en-1-one], the viability at 48 h, 25 µM is 74%.
